Data from PMC3199943, “Screening the MayBridge Rule of 3 Fragment Library for Compounds That Interact with the Trypanosoma brucei myo-Inositol-3-Phosphate Synthase and/or Show Trypanocidal Activity” (Molecular Biology International, 2011).
Like-named read-outs stand apart in the source and are kept apart here.

Experiments:
TbINO1 = biological target: T1, TbINO1 (Trypanosoma brucei brucei, UniProt Q5QQ46); experiment: biochemical; assay type: binding
T1 sequence (Q5QQ46 1-528): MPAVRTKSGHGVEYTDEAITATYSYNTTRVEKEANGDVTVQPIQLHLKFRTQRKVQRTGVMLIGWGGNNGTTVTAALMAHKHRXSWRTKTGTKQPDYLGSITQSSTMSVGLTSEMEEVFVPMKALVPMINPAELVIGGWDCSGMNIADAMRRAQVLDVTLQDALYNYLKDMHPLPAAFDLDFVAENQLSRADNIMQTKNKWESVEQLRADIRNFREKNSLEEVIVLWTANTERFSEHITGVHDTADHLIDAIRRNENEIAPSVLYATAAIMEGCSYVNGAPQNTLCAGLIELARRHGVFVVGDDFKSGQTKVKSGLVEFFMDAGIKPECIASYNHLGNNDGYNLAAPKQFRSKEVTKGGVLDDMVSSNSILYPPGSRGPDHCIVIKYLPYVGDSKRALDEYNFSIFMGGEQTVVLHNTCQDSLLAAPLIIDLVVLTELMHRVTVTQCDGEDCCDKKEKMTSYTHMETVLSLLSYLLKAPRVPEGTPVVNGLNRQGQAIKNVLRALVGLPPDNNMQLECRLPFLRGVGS

HeLa cells = experiment: cells; details: for viability at 500 µM: 65 h; for HeLa Cells Alamar Blue: Supplementary Table 1
Outline: (§1)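 HeLa and A549 cells grown in DMEM with 10% FCS and 2 mM L-Glutamine were seeded at 2 × 10^4 cells/well. They were exposed to compounds for ~65 hours, then Alamar Blue was added for a further 5 hours to measure viability.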

A549 cells = experiment: Cytotoxicity against A549 cells, Alamar Blue; assay type: cell-based; details: Supplementary Table 1, compound 0.5 mM, percentage of controls (n=1); for viability at 500 µM: Homo sapiens, A549, 65 h
Outline: as §1

[1] = read-out: Tb Ino1 Tm Shift [˚C]
[2] = Homo sapiens, HeLa, read-out: HeLa Cells Alamar Blue
[3] = Supplementary Table 1, compound 1mM, mean ± SD from Boltzman curve fitting
[4] = compound 0.5 mM, percentage of controls, mean ± SD (n=3) or SE (n=2)
[5] = Supplementary Table 1, compound 1mM, mean ± SD from Boltzman curve fitting, read-out: Tb Ino1 Tm Shift [˚C]
[6] = Homo sapiens, HeLa, read-out: HeLa Cells Alamar Blue (% survival)

Compound | ΔTm at 1000 µM (TbINO1; [1]) [°C] | viability at 500 µM (HeLa cells; [2]) [%] | viability at 500 µM (A549 cells) [%] | further results
C1CNCCNC1 [compound 13, 1,4‐diazepane] | 0.4 ± 0.07 | 88.5 ± 11.1 | 82.4 | –
CCOC(=O)C1CSCCN1 (stereo not shown) [compound 402, ethyl thiomorpholine‐3‐carboxylate] | 0.45 ± 0.08 | 107 ± 18.3 | 95.2 | –
Cc1nc(-c2ccc(C#N)cc2)cs1 [compound 625, 4‐(2‐methyl‐1,3‐thiazol‐4‐yl)benzonitrile] | 1.06 ± 0.07 | 74.1 ± 7.1 | 79.4 | –
OCc1ccncc1 [compound 18, 4‐pyridinylmethanol] | 0.36 ± 0.07 | 104 ± 3.9 | 102 | –
Cc1nc(-c2ccccc2)c(CO)s1 [compound 666, (2‐methyl‐4‐phenyl‐1,3‐thiazol‐5‐yl)methanol] | – | – | – | Tb Ino1 Tm Shift [˚C] (TbINO1; [3]): 0.08 ± 0.05 °C; HeLa Cells Alamar Blue (HeLa cells; [4]): 95.3 ± 5 percentage of controls; A549 Cells Alamar Blue (A549 cells): 113.4 percentage of controls
Nc1cccc(N2CCOCC2)c1 [compound 441, 3‐morpholin‐4‐ylaniline] | 0.27 ± 0.08 | 77.7 ± 16.7 | 85 | –
C#Cc1ccc(OC)cc1 [compound 96, 1‐eth‐1‐ynyl‐4‐methoxybenzene] | 0.48 ± 0.06 | 94 ± 4.9 | 111 | –
Cc1ccc2c(c1)OCO2 [compound 116, 5‐methyl‐1,3‐benzodioxole] | – | 82.7 ± 15.6 | 109 | ΔTm at 1000 µM (TbINO1; [5]): 0.38 ± 0.06 °C
Cn1c(=O)cc(O)c2ccccc21 [compound 395, 4-hydroxy-1-methyl-1,2-dihydroquinolin-2-one] | – | 93 ± 0.3 | 174 | ΔTm at 1000 µM (TbINO1; read-out: TbIno1 Tm shift [°C]): 1.62 ± 0.03 °C; viability at 500 µM (HeLa cells; [6]): 93 ± 0.3%
Nc1cccc(CN2CCCC2)c1 [compound 415, 3‐(pyrrolidin‐1‐ylmethyl)aniline] | 0.34 ± 0.06 | 57.8 ± 4.5 | 107 | –
Cc1nc(N)ccc1C#N [compound 102, 6‐amino‐2‐methylnicotinonitrile] | 0.27 ± 0.06 | 69.4 ± 12.4 | 76.1 | –
c1ccc(Sc2ccsc2)cc1 [compound 574, 3‐(phenylthio)thiophene] | 0.11 ± 0.07 | 98.8 ± 18.5 | 93.9 | –
Nc1cccc(-c2cncnc2)c1 [compound 353, 3‐pyrimidin‐5‐ylaniline] | 0.44 ± 0.06 | 78.7 ± 10 | 56.4 | –
OCc1cc2cccnc2s1 [compound 311, thieno[2,3‐b]pyridin‐2‐ylmethanol] | 0.8 ± 0.08 | 92 ± 11.8 | 77.5 | –
OCc1ccc2nccn2c1 [compound 171, imidazo[1,2‐a]pyridin‐6‐ylmethanol] | 0.84 ± 0.09 | 94.1 ± 15.6 | 99.4 | –
CNCc1c(-c2ccccc2)noc1C [compound 637, N‐methyl‐N‐[(5‐methyl‐3‐phenylisoxazol‐4‐yl)methyl]amine] | – | – | – | Tb Ino1 Tm Shift [˚C] (TbINO1; [3]): 0.02 ± 0.07 °C; HeLa Cells Alamar Blue (HeLa cells; [4]): 79.8 ± 7.5 percentage of controls; A549 Cells Alamar Blue (A549 cells): 112.6 percentage of controls
O=C(O)c1nsc(Cl)c1Cl [compound 602, 4,5‐dichloroisothiazole‐3‐carboxylic acid] | 0.1 ± 0.07 | 83.2 ± 12.5 | 68.2 | –
O=C(O)c1cc2sccc2s1 [compound 479, thieno[3,2‐b]thiophene‐2‐carboxylic acid] | 0.21 ± 0.07 | 109 ± 11.4 | 102 | –
c1cnc2c(c1)OCCN2 [compound 118, 3,4‐dihydro‐2H‐pyrido[3,2‐b][1,4]oxazine] | 0.46 ± 0.06 | 84.1 ± 18 | 92.3 | –
Cc1ccc2cc(CO)ccc2n1 [compound 374, (2‐methyl‐6‐quinolinyl)methanol] | 0.1 ± 0.06 | 53.2 ± 2.6 | 46.3 | –
O=C(O)Cc1ccccc1O [compound 201, 2‐(2‐hydroxyphenyl)acetic acid] | 0.65 ± 0.08 | 94.1 ± 15.7 | 94.2 | –

Compound | ΔTm at 1000 µM (TbINO1; [1]) [°C] | viability at 500 µM (HeLa cells; [2]) [%] | viability at 500 µM (A549 cells) [%] | further results
CCOC(=O)c1csc(C)n1 [compound 356, ethyl 2‐methyl‐1,3‐thiazole‐4‐carboxylate] | 0.28 ± 0.08 | 106 ± 5.3 | 79.8 | –
Nc1ccccc1CN1CCOCC1 [compound 570, 2‐(morpholin‐4‐ylmethyl)aniline] | 0.35 ± 0.05 | 93.2 ± 17.1 | 104 | –
Cc1cc(C(=O)O)c(C(F)(F)F)o1 [compound 583, 5‐methyl‐2‐(trifluoromethyl)‐3‐furoic acid] | 0.06 ± 0.07 | 86.1 ± 15.8 | 59.6 | –
c1cc(-c2ccncc2)ccn1 [compound 235, 4,4'‐dipyridyl] | – | 63.7 ± 17.4 | 54.8 | ΔTm at 1000 µM (TbINO1; [5]): 0.2 ± 0.07 °C
O=C(O)c1ccnc2ccccc12 [compound 368, quinoline‐4‐carboxylic acid] | 0.33 ± 0.08 | 90.7 ± 7.5 | 90.3 | –
COc1cccc(N)c1 [compound 61, 3‐methoxyaniline] | – | 48.7 ± 8.9 | 69.2 | ΔTm at 1000 µM (TbINO1; [5]): 0.19 ± 0.07 °C
COc1ccc(Cl)cc1C(=O)O [compound 508, 5‐chloro‐2‐methoxybenzoic acid] | 0.07 ± 0.07 | 78.4 ± 17.3 | 101 | –
Cc1nc(C)c(CO)s1 [compound 147, (2,4‐dimethyl‐1,3‐thiazol‐5‐yl)methanol] | 0.14 ± 0.08 | 93.6 ± 4.3 | 118 | –
CCc1cccc(C(C)=O)c1 [compound 174, 1‐(3‐ethylphenyl)ethan‐1‐one] | 0.8 ± 0.05 | 100 ± 7.3 | 79.2 | –
O=C(O)C1Cc2ccccc2N1 (stereo not shown) [compound 292, indoline-2-carboxylic acid] | – | 37.6 ± 25 | 78.3 | ΔTm at 1000 µM (TbINO1; read-out: TbIno1 Tm shift [°C]): 1.54 ± 0.11 °C; viability at 500 µM (HeLa cells; [6]): 37.6 ± 2.5%
CC(=O)c1ccc2c(c1)OCCO2 [compound 430, 1‐(2,3‐dihydro‐1,4‐benzodioxin‐6‐yl)ethan‐1‐one] | – | – | – | Tb Ino1 Tm Shift [˚C] (TbINO1; [3]): 0.13 ± 0.08 °C; HeLa Cells Alamar Blue (HeLa cells; [4]): 91.1 ± 12.8 percentage of controls; A549 Cells Alamar Blue (A549 cells): 101.8 percentage of controls
OCc1cccc2[nH]ccc12 [compound 163, 1H-indol-4-ylmethanol] | – | 103 ± 8.7 | 47 | ΔTm at 1000 µM (TbINO1; read-out: TbIno1 Tm shift [°C]): 1.9 ± 0.06 °C; viability at 500 µM (HeLa cells; [6]): 103 ± 8.7%; CC50 (HeLa cells; Homo sapiens, HeLa, read-out: HeLa ED50): 2500 ± 200 µM
Cc1ccc(C)c(C(O)C(=O)O)c1 (stereo not shown) [compound 454, 2‐(2,5‐dimethylphenyl)‐2‐hydroxyacetic acid] | – | – | – | Tb Ino1 Tm Shift [˚C] (TbINO1; [3]): 0.02 ± 0.06 °C; HeLa Cells Alamar Blue (HeLa cells; [4]): 96.8 ± 12.7 percentage of controls; A549 Cells Alamar Blue (A549 cells): 60.8 percentage of controls
Nc1cccc(-c2cnco2)c1 [compound 267, 3‐(1,3‐oxazol‐5‐yl)aniline] | 0.13 ± 0.09 | 75 ± 15.2 | 79.8 | –
Cn1cncc1C#N [compound 15, 1‐methyl‐1H‐imidazole‐5‐carbonitrile] | 0.08 ± 0.07 | 101 ± 9.5 | 90 | –
COC(=O)c1cc(C)[nH]c1C [compound 214, methyl 2,5‐dimethyl‐1H‐pyrrole‐3‐carboxylate] | – | – | – | Tb Ino1 Tm Shift [˚C] (TbINO1; [3]): 0.78 ± 0.06 °C; HeLa Cells Alamar Blue (HeLa cells; [4]): 74.8 ± 18 percentage of controls; A549 Cells Alamar Blue (A549 cells): 64.4 percentage of controls
O=C(O)c1ccc2ccccc2n1 [compound 369, 2‐quinolinecarboxylic acid] | – | – | 152 | ΔTm at 1000 µM (TbINO1; [5]): 0.1 ± 0.67 °C; viability at 500 µM (HeLa cells; Homo sapiens, HeLa, read-out: HeLa Cells Alamar Blue, Supplementary Table 1, compound 0.5 mM, percentage of controls, mean ± SD (n=3) or SE (n=2)): 81.3 ± 14.1%
OCc1cccc(N2CCCC2)c1 [compound 428, (3‐pyrrolidin‐1‐ylphenyl)methanol] | 0.44 ± 0.07 | 12.6 ± 5.6 | 81.2 | –
N#CCc1nc2ccccc2s1 [compound 387, 2‐(1,3‐benzothiazol‐2‐yl)acetonitrile] | 1.29 ± 0.14 | 86.4 ± 10.4 | 81 | –
N#Cc1ccc(F)cc1 [compound 51, 4‐fluorobenzonitrile] | – | 90.9 ± 7.5 | 64.2 | ΔTm at 1000 µM (TbINO1; [5]): 0.1 ± 0.08 °C
Cc1cccc(C(N)=O)c1C [compound 176, 2,3‐dimethylbenzamide] | 0.06 ± 0.07 | 88.2 ± 12.4 | 68.7 | –
